Assay results taken from patent US20120022107A1, “2-(PIPERIDIN-1-YL)-4-AZOLYL-THIAZOLE-5-CARBOXYLIC ACID DERIVATIVES AGAINST BACTERIAL INFECTIONS” (ASTRAZENECA AB, priority 2008, published 2012).
Values after ≈ are worked out from the molar mass of the structure shown.

How the values were obtained:
Sau = Sau MIC; assay type: cell-based, Staphylococcus aureus; settings: for MIC: Staphylococcus aureus, read-out: Sau_MIC
Spn = Spn MIC; assay type: cell-based, Streptococcus pneumoniae; settings: for MIC: Streptococcus pneumoniae, read-out: Spn_MIC
Hinf = Hinf MIC; assay type: cell-based, Haemophilus influenzae; settings: for MIC: Haemophilus influenzae, read-out: Hinf_MIC
Msmeg = Msmeg (Mycolicibacterium smegmatis, UniProt A0QNE0); experiment: Msmeg IC50; assay type: biochemical
Msmeg, sequence (A0QNE0 whole entry): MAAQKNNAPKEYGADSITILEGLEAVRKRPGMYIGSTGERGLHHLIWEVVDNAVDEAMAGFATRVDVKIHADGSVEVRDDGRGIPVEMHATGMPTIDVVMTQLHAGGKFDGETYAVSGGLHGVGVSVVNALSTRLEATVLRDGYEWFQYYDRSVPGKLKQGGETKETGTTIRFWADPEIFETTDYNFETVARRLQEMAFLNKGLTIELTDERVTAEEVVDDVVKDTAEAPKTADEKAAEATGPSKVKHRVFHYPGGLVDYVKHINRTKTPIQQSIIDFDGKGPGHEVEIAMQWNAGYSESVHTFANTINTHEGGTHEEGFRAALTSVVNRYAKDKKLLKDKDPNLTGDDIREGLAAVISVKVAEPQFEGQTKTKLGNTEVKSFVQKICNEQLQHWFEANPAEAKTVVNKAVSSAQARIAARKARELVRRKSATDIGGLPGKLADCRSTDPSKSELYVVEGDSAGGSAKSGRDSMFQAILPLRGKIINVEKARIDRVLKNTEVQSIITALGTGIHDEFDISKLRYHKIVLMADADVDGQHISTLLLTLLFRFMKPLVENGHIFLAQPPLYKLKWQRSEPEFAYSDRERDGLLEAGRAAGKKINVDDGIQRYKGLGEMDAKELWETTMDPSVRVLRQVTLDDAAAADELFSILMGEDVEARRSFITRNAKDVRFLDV

M. tuberculosis = experiment: MIC testing: Microplate Alamar Blue Assay; assay type: cell-based, Mycobacterium tuberculosis; settings: lowest concentration preventing color change from blue to pink; for MIC: Mycobacterium tuberculosis, read-out: Mtu MIC

Compound | Sau_MIC (Sau) [µg/mL] | Spn_MIC (Spn) [µg/mL] | Hinf_MIC (Hinf) [µg/mL] | IC50 (Msmeg) [nM] | Mtu MIC (M. tuberculosis) [µg/mL] | MIC (Sau) [µg/mL] | MIC (Spn) [µg/mL] | MIC (Hinf) [µg/mL] | MIC (M. tuberculosis) [µg/mL]
2-((3S,4R)-4-(3-bromo-4-chloro-5-methyl-1H-pyrrole-2- carboxamido)-3-fluoropiperidin-1-yl)-4-(1- (cyclopropylmethyl)-1H-1,2,4-triazol-5-yl) thiazole-5- carboxylic acid [Example 17] | 0.125 | 0.125 | 0.125 | 4 | 0.06 |  |  |  | 
CO[C@H]1CN(c2nc(-c3ncnn3C)c(C(=O)O)s2)CC[C@H]1NC(=O)c1[nH]c(C)c(Cl)c1Br [Example 1, 2-((3S,4R)-4-{[3-Bromo-4-chloro-5-methyl-1H-pyrrole-2-carbonyl]amino}-3-methoxypiperidin-1-yl)-4-(1-methyl-1H-1,2,4-triazol-5-yl)-1,3-thiazole-5-carboxylic acid] |  |  |  | 2.6 |  | 0.116 (≈ 0.208 µM) | 0.116 (≈ 0.208 µM) | 8 (≈ 14.3 µM) | 0.008 (≈ 0.0143 µM)
CO[C@H]1CN(c2nc(-c3ncnn3C)c(C(=O)O)s2)CC[C@H]1NC(=O)c1[nH]c(C)c(Br)c1Cl [Example 2, 2-((3S,4R)-4-{[4-Bromo-3-chloro-5-methyl-1H-pyrrole-2-carbonyl]amino}-3-methoxypiperidin-1-yl)-4-(1-methyl-1H-1,2,4-triazol-5-yl)-1,3-thiazole-5-carboxylic acid] |  |  |  | < 4 |  | 0.1 (≈ 0.179 µM) | 0.1 (≈ 0.179 µM) | 2.6 (≈ 4.65 µM) | < 0.03
CO[C@H]1CN(c2nc(-c3nccn3C)c(C(=O)O)s2)CC[C@H]1NC(=O)c1[nH]c(C)c(Cl)c1Br [Example 3, 2-((3S,4R)-4-{[(3-bromo-4-chloro-5-methyl-1H-pyrrol-2-yl)carbonyl]amino}-3-methoxypiperidin-1-yl)-4-(1-methyl-1H-imidazol-2-yl)-1,3-thiazole-5-carboxylic acid] |  |  |  | 6 |  | 0.125 (≈ 0.224 µM) | 0.125 (≈ 0.224 µM) | 0.25 (≈ 0.448 µM) | 0.125 (≈ 0.224 µM)
CO[C@H]1CN(c2nc(-c3ncnn3C)c(C(=O)O)s2)CC[C@H]1NC(=O)c1[nH]c(Cl)c(C)c1Cl [Example 4, 2-((3S,4R)-4-{[(3,5-Dichloro-4-methyl-1H-pyrrol-2-yl)carbonyl]amino}-3-methoxypiperidin-1-yl)-4-(1-methyl-1H-1,2,4-triazol-5-yl)-1,3-thiazole-5-carboxylic acid] |  |  |  | 30 |  | 1.26 (≈ 2.45 µM) | 0.1 (≈ 0.194 µM) | 4 (≈ 7.78 µM) | 0.125 (≈ 0.243 µM)
Cc1[nH]c(C(=O)N[C@@H]2CCN(c3nc(-c4ncnn4C)c(C(=O)O)s3)C[C@@H]2F)c(Br)c1Cl [Example 5, 2-((3S,4R)-4-{[(3-Bromo-4-chloro-5-methyl-1H-pyrrol-2-yl)carbonyl]amino}-3-fluoropiperidin-1-yl)-4-(1-methyl-1H-1,2,4-triazol-5-yl)-1,3-thiazole-5-carboxylic acid] |  |  |  | < 4 |  | 0.106 (≈ 0.194 µM) | 0.106 (≈ 0.194 µM) | 27.3 (≈ 50 µM) | < 0.06
Cc1[nH]c(C(=O)N[C@@H]2CCN(c3nc(-c4ncnn4C)c(C(=O)O)s3)C[C@@H]2F)c(Cl)c1Br [Example 6, 2-((3S,4R)-4-{[(4-Bromo-3-chloro-5-methyl-1H-pyrrol-2-yl)carbonyl]amino}-3-fluoropiperidin-1-yl)-4-(1-methyl-1H-1,2,4-triazol-5-yl)-1,3-thiazole-5-carboxylic acid] |  |  |  | 5 |  | 0.125 (≈ 0.229 µM) | 0.5 (≈ 0.914 µM) | 0.25 (≈ 0.457 µM) | 1 (≈ 1.83 µM)
COCCn1ccnc1-c1nc(N2CC[C@@H](NC(=O)c3[nH]c(C)c(Cl)c3Br)[C@@H](OC)C2)sc1C(=O)O [Example 7, 2-((3S,4R)-4-{[(3-Bromo-4-chloro-5-methyl-1H-pyrrol-2-yl)carbonyl]amino}-3-methoxypiperidin-1-yl)-4-[1-(2-methoxyethyl)-1H-imidazol-2-yl]-1,3-thiazole-5-carboxylic acid] |  |  |  | 4.6 |  | 0.125 (≈ 0.208 µM) | 0.125 (≈ 0.208 µM) | 0.25 (≈ 0.415 µM) | 1 (≈ 1.66 µM)
CO[C@H]1CN(c2nc(-c3ncnn3C)c(C(=O)O)s2)CC[C@H]1NC(=O)c1[nH]c(C)c(C#N)c1Br [Example 8, 2-{(3S,4R)-4-[(3-Bromo-4-cyano-5-methyl-1H-pyrrole-2-carbonyl)-amino]-3-methoxy-piperidin-1-yl}-4-(2-methyl-2H-[1,2,4]triazol-3-yl)-thiazole-5-carboxylic acid] |  |  |  | < 0.25 |  | 0.5 (≈ 0.91 µM) | 0.125 (≈ 0.228 µM) | 2 (≈ 3.64 µM) | < 0.03
CO[C@H]1CN(c2nc(-c3ncnn3C)c(C(=O)O)s2)CC[C@H]1NC(=O)c1[nH]c(C)c(Br)c1C#N [Example 9, 2-{(3S,4R)-4-[(4-Bromo-3-cyano-5-methyl-1H-pyrrole-2-carbonyl)-amino]-3-methoxy-piperidin-1-yl}-4-(2-methyl-2H-[1,2,4]triazol-3-yl)-thiazole-5-carboxylic acid] |  |  |  | 10 |  | 0.25 (≈ 0.455 µM) | 0.125 (≈ 0.228 µM) | 0.25 (≈ 0.455 µM) | 0.015 (≈ 0.0273 µM)
CCO[C@H]1CN(c2nc(-c3ncnn3C)c(C(=O)O)s2)CC[C@H]1NC(=O)c1[nH]c(C)c(Cl)c1Br [Example 10] |  |  |  | < 2.5 |  | 0.125 (≈ 0.218 µM) | 0.125 (≈ 0.218 µM) | 0.125 (≈ 0.218 µM) | 0.008 (≈ 0.014 µM)
CCO[C@H]1CN(c2nc(-c3ncnn3C)c(C(=O)O)s2)CC[C@H]1NC(=O)c1[nH]c(C)c(Br)c1Cl [Example 11, 2-((3S,4R)-4-(4-bromo-3-chloro-5-methyl-1H-pyrrole-2-carboxamido)-3-ethoxypiperidin-1-yl)-4-(1-methyl-1H-1,2,4-triazol-5-yl) thiazole-5-carboxylic acid] |  |  |  | < 2.5 |  | 0.125 (≈ 0.218 µM) | 0.125 (≈ 0.218 µM) |  | 0.06 (≈ 0.105 µM)
Cc1[nH]c(C(=O)N[C@@H]2CCN(c3nc(-c4ncnn4C)c(C(=O)O)s3)C[C@@H]2OCC2CC2)c(Br)c1Cl [Example 12, 2-((3S,4R)-4-(3-bromo-4-chloro-5-methyl-1H-pyrrole-2-carboxamido)-3-(cyclopropylmethoxy)piperidin-1-yl)-4-(1-methyl-1H-1,2,4-triazol-5-yl) thiazole-5-carboxylic acid] |  |  |  | 4 |  | 0.125 (≈ 0.209 µM) | 0.125 (≈ 0.209 µM) | 0.125 (≈ 0.209 µM) | 0.015 (≈ 0.025 µM)
COCCn1ncnc1-c1nc(N2CC[C@@H](NC(=O)c3[nH]c(C)c(Br)c3Cl)[C@@H](OC)C2)sc1C(=O)O [Example 21, 2-((3S,4R)-4-(4-bromo-3-chloro-5-methyl-1H-pyrrole-2-carboxamido)-3-methoxypiperidin-1-yl)-4-(1-(2-methoxyethyl)-1H-1,2,4-triazol-5-yl) thiazole-5-carboxylic acid] |  |  |  | < 2.5 |  | 0.125 (≈ 0.207 µM) | 0.125 (≈ 0.207 µM) |  | 0.06 (≈ 0.0995 µM)
COCCn1ncnc1-c1nc(N2CC[C@@H](NC(=O)c3[nH]c(Cl)c(C)c3Cl)[C@@H](OC)C2)sc1C(=O)O [Example 22, 2-((3S,4R)-4-(3,5-dichloro-4-methyl-1H-pyrrole-2-carboxamido)-3-methoxypiperidin-1-yl)-4-(1-(2-methoxyethyl)-1H-1,2,4-triazol-5-yl) thiazole-5-carboxylic acid] |  |  |  | 47 |  | 0.25 (≈ 0.448 µM) | 0.5 (≈ 0.895 µM) |  | 0.5 (≈ 0.895 µM)
